Assay results: patent US8242166B2, “C(10) ethyl ester and C(10) cyclopropyl ester substituted taxanes” (Florida State University Research Foundation, Inc., priority 2008, dated 2012)
Like-named read-outs stand apart in the source and are kept apart here.

Experiments:
SK-MEL-28 = test: MTT cytotoxicity (IC50), SK-MEL-28; format: cell-based; conditions: Homo sapiens, 72 h, read-out: IN Vitro IC50 (nm) ske-mel28
Experimental: (§1) Compound 17932 was tested in four of these cell lines, while the remaining compounds were tested in all of these cell lines. All cell lines were maintained in RPMI-1640 tissue culture medium (TCM, supplemented with antibiotics and 10% fetal bovine serum) and cultured at 37° C. in humidified air containing 5% CO2. To assess the antiproliferative effects of the test compounds, 172 μL of tumor cell suspension (1.45×10^4 cells/ml) were added to each well of a 96-well plate and incubated for 24 h at 37° C. in 5% CO2 in air to allow cells to adhere. Seven 2-fold drug dilutions in TCM/DMSO were performed in triplicate in separate 96-well plates and 28 μL was transferred to the wells containing tumor cells (200 μL final volume/0.1% DMSO). Plates were incubated for 72 h and cell viability was determined by adding 50 μL of warm TCM containing 5 mg/mL MTT (3-[4,5-dimethylthiazol-2-yl]-2,5-diphenyltetrazolium bromide) to each well and incubating for 1 h at 37° C. Plates were processed and the absorbances of the resulting solutions were measured by a plate reader at 570 nm. […] (GraphPad Prism version 4.00 for Windows). Studies were conducted by Taxolog, Inc., Tallahassee, Fla.

786-0 = test: MTT cytotoxicity (IC50), 786-0; format: cell-based; conditions: Homo sapiens
Experimental: as §1

A375 = test: MTT cytotoxicity (IC50), A375; format: cell-based; conditions: Homo sapiens, A-375
Experimental: as §1

TK-10 = test: MTT cytotoxicity (IC50), TK-10; format: cell-based; conditions: Homo sapiens, 72 h, read-out: IN Vitro IC50 (nm) TK10
Experimental: as §1

MALME-3 = test: MTT cytotoxicity (IC50), MALME-3; format: cell-based; conditions: Homo sapiens, 72 h, read-out: IN Vitro IC50 (nm) Malme3
Experimental: as §1

HT29 = test: MTT cytotoxicity (IC50), HT29; format: cell-based; conditions: Homo sapiens, HT-29, 72 h, read-out: IN Vitro IC50 (nm) HT29
Experimental: as §1

[1] = test system: HT29 human tumor xenografts; test: HT29 xenograft study e212, oral and i.v. (Example 26); conditions: for CR (complete regression) / NTR NTRa/u / NTR NTRm / PR (partial regression) / TFS (tumor-free survivor) / TR (treatment-related death): n=6
Text: (§2) The formulation for oral studies was an ethanol and Cremophor formulation while the formulation for compound 18365 and compound 19244 dosed i.v. was 5% ethanol and 95% Liposyn II 20%.

OVCAR4 = test: MTT cytotoxicity (IC50), OVCAR4; format: cell-based; conditions: Homo sapiens, OVCAR-4, 72 h, read-out: IN Vitro IC50 (nm) OVCAR4
Experimental: as §1

DLD-1 = test: MTT cytotoxicity (IC50), DLD-1; format: cell-based; conditions: Homo sapiens
Experimental: as §1

PANC-1 = test: MTT cytotoxicity (IC50), PANC-1; format: cell-based; conditions: Homo sapiens, 72 h, read-out: IN Vitro IC50 (nm) Panc
Experimental: as §1

SNB-19 = test: MTT cytotoxicity (IC50), SNB-19; format: cell-based; conditions: Homo sapiens, 72 h, read-out: IN Vitro IC50 (nm) SNB19
Experimental: as §1

[2] = test system: HT29 human tumor xenografts; test: HT29 xenograft study e139 (Example 23); format: in vivo, nude mice
BxPC-3 cancer cell line = test: MTT cytotoxicity (IC50), BxPC-3 (Oncodesign); format: cell-based; conditions: Homo sapiens
Experimental: BxPC-3 cancer cell line (Source ATCC) and culture medium were purchased and provided by Oncodesign (France).
Tumor cells (5,000 cells per well) were plated in 96-well flat-bottom microtitration plates (Ref 167008, Batch 083310, Nunc, Dutscher, Brumath, France) and incubated at 37° C. for 24 hours before treatment in 100 μl of drug-free RPMI 1640 medium supplemented with 10% FBS. Tumor cell lines were incubated for 72 hours with 10 concentrations of both test substances and TXT (40 to 0.07 nM using ½ step dilutions). Experiments were repeated three times, each assay being issued from quadruplicate. Control cells were treated with the vehicle alone. At the end of treatments, the cytotoxic activity was evaluated by a MTT assay. These studies were conducted at Oncodesign, France.

[3] = test system: HT29 human tumor xenografts; test: HT29 xenograft study e210, oral and i.v. (Example 25); conditions: for CR (complete regression) / NTR NTRa/u / NTR NTRm / PR (partial regression) / TFS (tumor-free survivor) / TR (treatment-related death): n=6
Text: as §2

[4] = MTT, 72 h, read-out: IN Vitro IC50 (nm) 786-0
[5] = Resistance MDR1+, read-out: 786-0 Renal (Table 4, quantity not named; IC50 values as Table 2)
[6] = MTT, 72 h, read-out: IN Vitro IC50 (nm) A375
[7] = Resistance MRP9, read-out: A375 Melanoma (Table 4, quantity not named; IC50 values as Table 2)
[8] = 25 mg/kg iv q4d × 4, vehicle EL
[9] = 50 mg/kg po q4d × 4, vehicle EC
[10] = MTT, 72 h, read-out: IN Vitro IC50 (nm) DLD1
[11] = Resistance MDR1+, read-out: DLD1 Colon (Table 4, quantity not named; IC50 values as Table 2)
[12] = every four day schedule for four doses

## CCC(=O)O[C@H]1C(=O)[C@@]2(C)C([C@H](OC(=O)c3ccccc3)[C@]3(O)C[C@H](OC(=O)[C@H](O)[C@@H](NC(=O)OC4CCCC4)c4cccs4)C(C)=C1C3(C)C)[C@]1(OC(C)=O)CO[C@@H]1C[C@@H]2O (some centres unmarked) [Compound 18926]
SK-MEL-28
  IC50: 0.6 nM
786-0; [4]
  IC50: 0.7 nM
786-0; [5]
  IC50: 0.7 nM
A375; [6]
  IC50: 0.5 nM
A375; [7]
  IC50: 0.5 nM
TK-10
  IC50: 0.3 nM
MALME-3
  IC50: 1.8 nM
HT29
  IC50: 0.4 nM
[1]; 25 mg/kg iv q4d × 4
  CR (complete regression): 5
  NTR NTRa/u: 0
  NTR NTRm: 0
  PR (partial regression): 0
  TFS (tumor-free survivor): 5
  TR (treatment-related death): 1
[1]; [8]
  % TGD: 237.14%
  BW Nadir: 13.5% (17)
  MTV (n), Day 59: 0.00 (5) mm^3
  Median TTE: 59 days
  T-C: 41.5 days
[1]; 50 mg/kg po q4d × 4
  CR (complete regression): 1
  NTR NTRa/u: 0
  NTR NTRm: 0
  PR (partial regression): 5
  TFS (tumor-free survivor): 1
  TR (treatment-related death): 0
[1]; [9]
  % TGD: 237.14%
  BW Nadir: 10.4% (17)
  MTV (n), Day 59: 20.25 (6) mm^3
  Median TTE: 59 days
  T-C: 41.5 days
OVCAR4
  IC50: 1 nM
DLD-1; [10]
  IC50: 0.8 nM
DLD-1; [11]
  IC50: 0.8 nM
PANC-1
  IC50: 0.5 nM
SNB-19
  IC50: 1 nM
[2]; 20 mg/kg i.v. q4d×4
  MTV (Day 61): 83 mm^3
[2]; 20 mg/kg i.v. q4d×4, six mice
  PR responses: 5
[2]; 20 mg/kg iv q4d × 4
  Day 51 mm^3 (tumor size): 142.3 mm^3
  Day 54 mm^3 (tumor size): 147 mm^3
  Max. BW Loss %; Day: −20.7%; Day 16
[2]; 20 mg/kg iv q4d × 4, N=6
  Number of Death NTR: 0
  Number of Death TR: 0

## CCC(=O)O[C@H]1C(=O)[C@@]2(C)C([C@H](OC(=O)c3ccccc3)[C@]3(O)C[C@H](OC(=O)[C@H](O)[C@@H](NC(=O)OC4CCC4)c4cccs4)C(C)=C1C3(C)C)[C@]1(OC(C)=O)CO[C@@H]1C[C@@H]2O (some centres unmarked) [Compound 19244]
SK-MEL-28
  IC50: 2 nM
786-0; [4]
  IC50: 0.9 nM
786-0; [5]
  IC50: 0.9 nM
A375; [6]
  IC50: 0.6 nM
A375; [7]
  IC50: 0.5 nM
TK-10
  IC50: 0.4 nM
MALME-3
  IC50: 1.1 nM
HT29
  IC50: 0.6 nM
[1]; [12]
  activity in the HT29 xenograft tumor model: oral and IV activity
BxPC-3 cancer cell line; BXPC-3, 72 h, Exp 1, MTT, 72 hours, read-out: IC50 (nM) BxPC-3
  IC50: 0.53 nM
BxPC-3 cancer cell line; BXPC-3, 72 h, Exp 2, MTT, 72 hours, read-out: IC50 (nM) BxPC-3
  IC50: 0.66 nM
BxPC-3 cancer cell line; BXPC-3, 72 h, Exp 3, MTT, 72 hours, read-out: IC50 (nM) BxPC-3
  IC50: 1.03 nM
BxPC-3 cancer cell line; BXPC-3, mean of 3 experiments, read-out: IC50 Mean ± SD (nM) BxPC-3
  IC50: 0.74 ± 0.26 nM
OVCAR4
  IC50: 2.7 nM
DLD-1; [10]
  IC50: 1.8 nM
DLD-1; [11]
  IC50: 1.8 nM
[3]; 30 mg/kg iv q4d × 4
  % TGD: 214.3%
  BW Nadir: 11.1% (16)
  MTV (n), Day 60: 36.00 (6) mm^3
  Median TTE: 60 days
  T-C: 40.91 days
  CR (complete regression): 1
  NTR NTRa/u: 0
  NTR NTRm: 0
  PR (partial regression): 5
  TFS (tumor-free survivor): 1
  TR (treatment-related death): 0
[3]; 60 mg/kg po q4d × 4
  % TGD: 214.3%
  BW Nadir: −8.5% (16)
  MTV (n), Day 60: 0.25 (6) mm^3
  Median TTE: 60 days
  T-C: 40.91 days
  CR (complete regression): 4
  NTR NTRa/u: 0
  NTR NTRm: 0
  PR (partial regression): 2
  TFS (tumor-free survivor): 4
  TR (treatment-related death): 0
[3]; [12]
  activity in the HT29 xenograft tumor model: oral and IV activity
PANC-1
  IC50: 1.2 nM
SNB-19
  IC50: 0.9 nM
